Experimental data taken from patent US10392368B2, “Pyrazolo and triazolo bicyclic compounds as JAK kinase inhibitors” (THERAVANCE BIOPHARMA R&D IP, LLC, priority 2017, dated 2019).

Columns and labels:
JAK1 = target: T1, JAK1 (Homo sapiens, UniProt P23458); experiment: Biochemical JAK1 kinase assay (LanthaScreen); details: for Ki: read-out: JAK 1 (pKi) (converted)
T1 construct: GST; purchased Life Technologies
How it was run: (§1)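 GST-JAK + GFP-STAT1 peptide + cpd, 1 h preinc RT; ATP start, 1% DMSO, 1 h RT; stop 10 mM EDTA + 2 nM Tb-anti-pSTAT1; 1 h; TR-FRET 520/495. % inhib vs DMSO/background → IC50 (4-PL) → pKi (Cheng-Prusoff).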

JAK2 = target: T2, JAK2 (Homo sapiens, UniProt O60674); experiment: Biochemical JAK2 kinase assay (LanthaScreen); details: for Ki: read-out: JAK 2 (pKi) (converted)
T2 construct: GST; purchased Life Technologies
T2 sequence (O60674 whole entry): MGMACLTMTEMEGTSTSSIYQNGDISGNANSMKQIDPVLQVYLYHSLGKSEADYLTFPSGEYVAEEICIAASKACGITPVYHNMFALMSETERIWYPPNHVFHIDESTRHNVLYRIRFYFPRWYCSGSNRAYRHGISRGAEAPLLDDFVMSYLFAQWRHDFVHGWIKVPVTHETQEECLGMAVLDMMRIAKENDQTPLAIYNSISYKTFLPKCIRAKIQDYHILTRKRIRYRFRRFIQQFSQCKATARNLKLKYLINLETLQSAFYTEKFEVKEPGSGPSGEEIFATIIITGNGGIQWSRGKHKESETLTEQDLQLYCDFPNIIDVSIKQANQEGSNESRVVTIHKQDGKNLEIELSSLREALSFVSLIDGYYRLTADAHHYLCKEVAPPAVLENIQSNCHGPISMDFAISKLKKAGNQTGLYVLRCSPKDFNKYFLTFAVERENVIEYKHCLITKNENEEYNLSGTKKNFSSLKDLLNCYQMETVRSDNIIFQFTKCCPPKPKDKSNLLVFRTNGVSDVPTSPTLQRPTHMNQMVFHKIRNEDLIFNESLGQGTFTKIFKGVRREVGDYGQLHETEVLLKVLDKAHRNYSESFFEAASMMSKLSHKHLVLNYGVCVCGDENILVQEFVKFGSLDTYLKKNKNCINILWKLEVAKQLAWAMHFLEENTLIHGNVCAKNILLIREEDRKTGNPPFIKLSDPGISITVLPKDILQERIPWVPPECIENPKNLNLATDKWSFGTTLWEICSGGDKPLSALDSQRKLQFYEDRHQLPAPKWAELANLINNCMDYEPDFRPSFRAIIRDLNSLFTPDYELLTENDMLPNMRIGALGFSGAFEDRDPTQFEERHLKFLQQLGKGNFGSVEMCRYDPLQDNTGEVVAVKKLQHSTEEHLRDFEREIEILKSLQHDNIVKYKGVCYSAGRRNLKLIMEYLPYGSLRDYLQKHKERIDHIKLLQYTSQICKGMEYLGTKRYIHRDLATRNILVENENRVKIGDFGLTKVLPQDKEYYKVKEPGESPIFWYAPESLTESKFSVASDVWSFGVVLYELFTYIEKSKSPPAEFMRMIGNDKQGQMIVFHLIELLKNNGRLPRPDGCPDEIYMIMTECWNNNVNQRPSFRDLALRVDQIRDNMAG
How it was run: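 GST-tagged recombinant JAK2 pre-incubated 1 h at ambient temperature with compound and GFP-STAT1 peptide in HEPES pH 7.5/MgCl2 buffer, then ATP added for a 1 h reaction with 1% DMSO. TR-FRET read after EDTA and Tb-anti-pSTAT1 (pTyr701) addition; IC50 from 4-parameter fit, converted to pKi by Cheng-Prusoff.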

Tyk2 = target: T3, Tyk2 (Homo sapiens, UniProt P29597); experiment: Biochemical Tyk2 kinase assay (LanthaScreen); details: for Ki: read-out: Tyk 2 (pKi) (converted)
T3 construct: GST; purchased Life Technologies
T3 sequence (P29597 whole entry): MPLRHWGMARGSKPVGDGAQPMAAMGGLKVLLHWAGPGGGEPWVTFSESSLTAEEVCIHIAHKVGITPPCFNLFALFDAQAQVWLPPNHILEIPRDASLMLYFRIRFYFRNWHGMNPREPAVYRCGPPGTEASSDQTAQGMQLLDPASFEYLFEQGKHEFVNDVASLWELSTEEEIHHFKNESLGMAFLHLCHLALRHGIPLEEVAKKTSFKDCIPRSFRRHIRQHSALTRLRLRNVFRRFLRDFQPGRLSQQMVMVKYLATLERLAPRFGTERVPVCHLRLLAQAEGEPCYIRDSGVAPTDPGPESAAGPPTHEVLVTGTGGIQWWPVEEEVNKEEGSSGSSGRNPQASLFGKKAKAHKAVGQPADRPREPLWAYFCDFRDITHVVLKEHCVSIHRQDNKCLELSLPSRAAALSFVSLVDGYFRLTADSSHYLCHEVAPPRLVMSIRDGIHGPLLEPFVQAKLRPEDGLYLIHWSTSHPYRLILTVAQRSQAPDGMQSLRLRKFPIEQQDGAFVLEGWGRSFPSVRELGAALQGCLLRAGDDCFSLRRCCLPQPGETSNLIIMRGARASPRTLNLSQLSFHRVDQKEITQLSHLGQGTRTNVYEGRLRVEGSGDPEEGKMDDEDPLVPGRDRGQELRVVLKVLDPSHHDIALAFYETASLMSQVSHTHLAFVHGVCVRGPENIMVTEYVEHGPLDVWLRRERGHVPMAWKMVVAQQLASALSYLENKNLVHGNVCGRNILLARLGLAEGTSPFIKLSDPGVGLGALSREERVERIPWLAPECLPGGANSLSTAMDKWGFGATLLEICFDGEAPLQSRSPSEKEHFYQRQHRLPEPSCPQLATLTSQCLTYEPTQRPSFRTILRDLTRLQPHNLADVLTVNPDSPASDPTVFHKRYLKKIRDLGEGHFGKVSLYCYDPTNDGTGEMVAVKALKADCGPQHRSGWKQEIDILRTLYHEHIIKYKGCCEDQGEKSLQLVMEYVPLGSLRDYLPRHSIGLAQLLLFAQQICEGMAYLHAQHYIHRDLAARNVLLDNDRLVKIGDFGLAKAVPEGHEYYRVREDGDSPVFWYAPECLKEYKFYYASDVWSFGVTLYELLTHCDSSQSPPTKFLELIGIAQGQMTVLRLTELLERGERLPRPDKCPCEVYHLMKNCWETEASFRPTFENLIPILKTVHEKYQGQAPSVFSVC
How it was run: as §1

[1] = tested on: IL-2 stimulated pSTAT5 in Tall-1 T cells; experiment: Cellular JAK3 potency assay: inhibition of IL-2 stimulated pSTAT5 in Tall-1 T cells; format: cell-based, human; details: for IC50: Homo sapiens, TALL-1, IL-2 stimulated pSTAT5, Tall-1 T cells, read-out: Tall-1 (pIC50) (converted); for Tall-1 (pIC50): IL-2 stimulated pSTAT5, Tall-1 T cells
How it was run: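 In human Tall-1 T cells, IL-2 (300 ng/ml final, 30 min) drives STAT5 phosphorylation after a 1 h compound pretreatment. Lysates are assayed for pSTAT5 by AlphaLisa, and IC50 derived from signal versus concentration is expressed as pIC50.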

JAK3 = target: T4, JAK3 (Homo sapiens, UniProt P52333); experiment: Biochemical JAK3 kinase assay (LanthaScreen); design: GST; purchased Life Technologies; details: for Ki: read-out: JAK 3 (pKi) (converted); for JAK3 (pKi)-JAK1 (pKi): selectivity JAK3 over JAK1, difference of pKi
T4 sequence (P52333 1-1124): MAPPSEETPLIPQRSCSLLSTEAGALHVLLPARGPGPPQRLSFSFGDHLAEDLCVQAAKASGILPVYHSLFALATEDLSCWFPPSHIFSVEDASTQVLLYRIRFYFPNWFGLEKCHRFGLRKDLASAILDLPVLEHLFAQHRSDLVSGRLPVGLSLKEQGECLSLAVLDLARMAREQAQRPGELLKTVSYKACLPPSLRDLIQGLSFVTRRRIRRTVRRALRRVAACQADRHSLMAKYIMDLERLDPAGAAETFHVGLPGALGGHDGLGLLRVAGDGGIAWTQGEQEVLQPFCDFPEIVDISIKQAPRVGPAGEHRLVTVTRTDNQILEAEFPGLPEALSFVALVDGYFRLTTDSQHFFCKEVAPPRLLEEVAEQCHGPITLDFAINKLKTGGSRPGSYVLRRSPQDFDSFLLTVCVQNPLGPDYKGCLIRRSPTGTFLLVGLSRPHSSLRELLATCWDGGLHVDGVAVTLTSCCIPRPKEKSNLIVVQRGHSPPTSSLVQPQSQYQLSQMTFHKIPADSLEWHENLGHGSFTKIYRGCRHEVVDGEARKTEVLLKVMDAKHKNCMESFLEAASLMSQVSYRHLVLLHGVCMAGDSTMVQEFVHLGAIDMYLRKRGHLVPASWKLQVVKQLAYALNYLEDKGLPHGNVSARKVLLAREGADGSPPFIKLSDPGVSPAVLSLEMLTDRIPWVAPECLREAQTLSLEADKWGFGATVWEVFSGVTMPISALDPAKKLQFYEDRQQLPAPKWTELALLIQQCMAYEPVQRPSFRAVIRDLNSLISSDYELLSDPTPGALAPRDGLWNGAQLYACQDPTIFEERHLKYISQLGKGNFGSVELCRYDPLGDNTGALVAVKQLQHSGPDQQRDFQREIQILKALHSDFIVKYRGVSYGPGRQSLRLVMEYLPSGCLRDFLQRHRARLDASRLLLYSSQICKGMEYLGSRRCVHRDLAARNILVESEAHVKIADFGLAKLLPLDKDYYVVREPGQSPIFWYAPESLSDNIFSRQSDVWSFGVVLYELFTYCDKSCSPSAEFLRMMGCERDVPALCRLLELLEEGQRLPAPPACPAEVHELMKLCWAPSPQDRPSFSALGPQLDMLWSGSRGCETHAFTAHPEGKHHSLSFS
How it was run: as §1

T1 sequence (P23458 whole entry): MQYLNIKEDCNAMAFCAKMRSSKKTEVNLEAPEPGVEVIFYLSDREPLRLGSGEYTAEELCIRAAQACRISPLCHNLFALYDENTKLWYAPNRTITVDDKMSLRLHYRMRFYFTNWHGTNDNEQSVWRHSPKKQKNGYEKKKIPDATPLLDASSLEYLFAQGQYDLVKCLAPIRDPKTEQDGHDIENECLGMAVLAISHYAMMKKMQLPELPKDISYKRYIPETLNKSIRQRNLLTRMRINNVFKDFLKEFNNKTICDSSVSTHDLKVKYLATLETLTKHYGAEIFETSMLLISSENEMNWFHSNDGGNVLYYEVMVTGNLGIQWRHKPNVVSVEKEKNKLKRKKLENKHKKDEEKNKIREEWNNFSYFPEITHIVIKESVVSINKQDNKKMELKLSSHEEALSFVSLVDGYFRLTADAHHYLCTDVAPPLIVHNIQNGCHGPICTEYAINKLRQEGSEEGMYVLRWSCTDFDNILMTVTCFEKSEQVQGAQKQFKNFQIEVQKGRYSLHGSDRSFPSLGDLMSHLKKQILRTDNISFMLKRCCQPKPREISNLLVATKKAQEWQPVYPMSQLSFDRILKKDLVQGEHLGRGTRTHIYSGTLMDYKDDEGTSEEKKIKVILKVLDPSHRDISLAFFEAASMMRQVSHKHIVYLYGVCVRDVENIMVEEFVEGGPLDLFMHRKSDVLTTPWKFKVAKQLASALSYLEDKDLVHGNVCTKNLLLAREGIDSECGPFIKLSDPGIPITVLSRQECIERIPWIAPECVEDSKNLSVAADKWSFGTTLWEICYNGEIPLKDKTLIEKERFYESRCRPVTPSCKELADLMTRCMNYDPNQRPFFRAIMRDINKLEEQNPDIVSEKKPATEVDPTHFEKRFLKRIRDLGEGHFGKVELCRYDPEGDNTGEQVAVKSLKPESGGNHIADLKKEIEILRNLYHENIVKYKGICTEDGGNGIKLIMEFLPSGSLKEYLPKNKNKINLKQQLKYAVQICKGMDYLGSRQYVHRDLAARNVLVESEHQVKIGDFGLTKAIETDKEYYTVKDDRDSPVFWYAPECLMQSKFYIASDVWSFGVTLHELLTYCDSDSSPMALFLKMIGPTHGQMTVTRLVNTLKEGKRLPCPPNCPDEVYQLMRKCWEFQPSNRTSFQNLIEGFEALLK

SMILES | Ki (JAK1) | Ki (JAK2) | Ki (Tyk2) | IC50 [1] | Ki (JAK3) | JAK3 (pKi)-JAK1 (pKi) (JAK3) | JAK 1 (pKi) (JAK1) | JAK 2 (pKi) (JAK2) | Tyk 2 (pKi) (Tyk2) | Tall-1 (pIC50) [1] | JAK 3 (pKi) (JAK3)
C=CC(=O)N1CC[C@@H](Oc2cc(-c3ccc(O)cc3)cc3[nH]ncc23)C[C@H]1C [Compound 12-29] | > 100 nM | 10 to 100 nM | > 100 nM | < 31.6 nM | 0.1 to 1 nM | A (a value of 3 or above) |  |  |  |  | 
C=CC(=O)N1CC[C@@H](Oc2cc(-c3ccc(O)cc3)cc3[nH]ncc23)C[C@@H]1C [Compound 12-30] | > 100 nM | 1 to 10 nM | > 100 nM | < 31.6 nM | < 0.1 nM | A (a value of 3 or above) |  |  |  |  | 
C=CC(=O)N1CC[C@H](Oc2cc(-c3ccc(O)cc3)cc3[nH]ncc23)C[C@@H]1C [Compound 12-31] | > 100 nM | 1 to 10 nM | > 100 nM | 31.6 to 200 nM | < 0.1 nM | A (a value of 3 or above) |  |  |  |  | 
C=CC(=O)N1CC[C@H](Oc2cc(-c3ccc(O)cc3)cc3[nH]ncc23)C[C@H]1C [Compound 12-32] | > 100 nM | 10 to 100 nM | > 100 nM | < 31.6 nM | < 0.1 nM | A (a value of 3 or above) |  |  |  |  | 
C=CC(=O)N1C[C@@H](Oc2cc(-c3ccc(O)cc3)cc3[nH]ncc23)CC[C@@H]1C [Compound 12-33] | > 100 nM | > 100 nM | > 100 nM | 31.6 to 200 nM | 0.1 to 1 nM | A (a value of 3 or above) |  |  |  |  | 
C=CC(=O)N1CC(CSc2cc(-c3ccc(O)cc3)cc3[nH]ncc23)C1 [Compound 12-34] | > 100 nM | > 100 nM | > 100 nM | < 31.6 nM | 0.1 to 1 nM | B (a value of 2.3 to 3) |  |  |  |  | 
C=CC(=O)N1CC(Sc2cc(-c3ccc(O)cc3)cc3[nH]ncc23)C1 [Compound 12-35] | > 100 nM | > 100 nM | > 100 nM | 31.6 to 200 nM | 0.1 to 1 nM | B (a value of 2.3 to 3) |  |  |  |  | 
CN(C)C/C=C/C(=O)N1CC(F)(C2(Oc3cc(-c4ccc(O)cc4)cc4[nH]ncc34)CC2)C1 [Compound 12-36] | 10 to 100 nM | > 100 nM | > 100 nM | < 31.6 nM | < 0.1 nM | A (a value of 3 or above) |  |  |  |  | 
CN(C)C/C=C/C(=O)N1CC(OCc2cc(-c3ccc(O)cc3)cc3[nH]ncc23)C1 [Compound 12-38] | > 100 nM | > 100 nM | > 100 nM | 31.6 to 200 nM | < 0.1 nM | A (a value of 3 or above) |  |  |  |  | 
C=CC(=O)N1CC(OCc2cc(-c3ccc(O)cc3)cc3[nH]ncc23)C1 [Compound 12-39] | > 100 nM | > 100 nM | > 100 nM | < 31.6 nM | 0.1 to 1 nM | A (a value of 3 or above) |  |  |  |  | 
C=CC(=O)N1CCC(C#N)(C(=O)Nc2cc(-c3ccc(O)cc3)cc3[nH]ncc23)CC1 [Compound 12-41] | > 100 nM | > 100 nM | > 100 nM | < 31.6 nM | 0.1 to 1 nM | A (a value of 3 or above) |  |  |  |  | 
C=CC(=O)N1CCSC(C(=O)Nc2cc(-c3ccc(O)cc3)cc3[nH]ncc23)C1 (stereo not drawn) [Compound 12-42] | > 100 nM | 10 to 100 nM | > 100 nM | 31.6 to 200 nM | 0.1 to 1 nM | B (a value of 2.3 to 3) |  |  |  |  | 
C=CC(=O)N1CCSC(C(=O)Nc2cc(-c3ccc(O)cc3)cc3[nH]ncc23)C1 (stereo not drawn) [Compound 12-43] |  |  |  |  | < 0.1 nM | A (a value of 3 or above) | E (a pKi value of 7 or below (Ki of 100 nM or above)) | D (a pKi value between 7 and 8 (Ki between 100 nM and 10 nM)) | E (a pKi value of 7 or below (Ki of 100 nM or above)) | A (a pIC50 value≥7.5 (IC50≤32 nM)) | 
C=CC(=O)N1CCS[C@@H](C(=O)Nc2cc(-c3ccc(O)cc3)cc3[nH]ncc23)C1 [Compound 12-44] | > 100 nM | 10 to 100 nM | > 100 nM | 31.6 to 200 nM | < 0.1 nM | A (a value of 3 or above) |  |  |  |  | 
C=CC(=O)N1CCS(=O)(=O)C(C(=O)Nc2cc(-c3ccc(O)cc3)cc3[nH]ncc23)C1 (stereo not drawn) [Compound 12-45] | > 100 nM | > 100 nM | > 100 nM | 200 to 1000 nM | < 0.1 nM | A (a value of 3 or above) |  |  |  |  | 
C=CC(=O)N1CC(C(=O)Nc2cc(-c3ccc(O)cc3)cc3[nH]ncc23)C1 [Compound 12-46] | > 100 nM | 10 to 100 nM | > 100 nM | 31.6 to 200 nM | < 0.1 nM | A (a value of 3 or above) |  |  |  |  | 
C=CC(=O)N1CC(C#N)(C(=O)Nc2cc(-c3ccc(O)cc3)cc3[nH]ncc23)C1 [Compound 12-47] | > 100 nM | > 100 nM | > 100 nM | 31.6 to 200 nM | 0.1 to 1 nM | A (a value of 3 or above) |  |  |  |  | 
C=CC(=O)N1CC(F)(C(=O)Nc2cc(-c3ccc(O)cc3)cc3[nH]ncc23)C1 [Compound 12-48] | > 100 nM | > 100 nM | > 100 nM | < 31.6 nM | 0.1 to 1 nM | A (a value of 3 or above) |  |  |  |  | 
CN(C)C/C=C/C(=O)N1CC(S(=O)(=O)c2cc(-c3ccc(O)cc3)cc3[nH]ncc23)C1 [Compound 12-49] | > 100 nM | > 100 nM | > 100 nM | 200 to 1000 nM | 0.1 to 1 nM | A (a value of 3 or above) |  |  |  |  | 
C=CC(=O)N1CC(S(=O)(=O)c2cc(-c3ccc(O)cc3)cc3[nH]ncc23)C1 [Compound 12-50] | > 100 nM | > 100 nM | > 100 nM | 31.6 to 200 nM | < 0.1 nM | A (a value of 3 or above) |  |  |  |  | 
CN(C)C/C=C/C(=O)N1CC(Sc2cc(-c3ccc(O)cc3)cc3[nH]ncc23)C1 [Compound 12-51] |  |  |  |  |  | A (a value of 3 or above) | D (a pKi value between 7 and 8 (Ki between 100 nM and 10 nM)) | D (a pKi value between 7 and 8 (Ki between 100 nM and 10 nM)) | E (a pKi value of 7 or below (Ki of 100 nM or above)) | B (a pIC50 value between 6.7 (included) and 7.5 (IC50 between 200 nM and 32 nM)) | A (a pKi value≥10 (Ki≤0.1 nM))
CN(C)C/C=C/C(=O)N1CC2(CCC2Oc2cc(-c3ccc(O)cc3)cc3[nH]ncc23)C1 (stereo not drawn) [Compound 12-53] | > 100 nM | 1 to 10 nM | > 100 nM | < 31.6 nM | 0.1 to 1 nM | B (a value of 2.3 to 3) |  |  |  |  | 
C=CC(=O)N1CC2(CCC2Oc2cc(-c3ccc(O)cc3)cc3[nH]ncc23)C1 (stereo not drawn) [Compound 12-54] | > 100 nM | 10 to 100 nM | > 100 nM | < 31.6 nM | 0.1 to 1 nM | B (a value of 2.3 to 3) |  |  |  |  | 
